Experimental data reported in patent US4272437A, “Antibacterial agents, and 4-thio azetidinone intermediates” (priority 1979, dated 1981).
Values after ≈ are worked out from the molar mass of the structure shown. Where two headings read alike, the source gives them in different places.

Experiments:
Str. pneumoniae A-9585 = experiment: MIC, tube dilution, Streptococcus pneumoniae A9585; type: cell-based; conditions: Streptococcus pneumoniae, A9585, Str. pneumoniae A9585; overnight 37° C., Nutrient Broth; read-out: Minimum Inhibitory Concentration (M.I.C.)
Description: (§1) Representative compounds of the present invention were subjected to in vitro antibiotic screening against a variety of microorganisms.

Proteus mirabilis A9900 = experiment: In vivo protection of mice, lethal infection with Proteus mirabilis A9900; conditions: IM, 2 treatments, 1.3 × 10^7 organisms, read-out: PD50
Method: (§2) Representative compounds of the present invention were also tested in vivo in mice and their PD50 (dose of compound in mg/kg required to protect 50% of the treated mice against an otherwise lethal infection of a micro-organism) values determined with respect to the test organisms shown below.

Pr. mirabilis A-9900 = experiment: MIC, tube dilution, Proteus mirabilis A9900; type: cell-based; conditions: Proteus mirabilis, A9900, Proteus mirabilis A9900; overnight 37° C.; read-out: Minimum Inhibitory Concentration (M.I.C.)
Description: as §1

[1] = test system: Staph. aureus A-9537 and 50% serum; experiment: MIC, tube dilution, Staph. aureus A9537 + 50% serum; type: cell-based, Staphylococcus aureus; conditions: Staphylococcus aureus, overnight 37° C., read-out: Minimum Inhibitory Concentration (M.I.C.)
Description: as §1

E. coli A15119 = experiment: In vivo protection of mice, lethal infection with E. coli A15119; conditions: Escherichia coli, IM, 2 treatments, 7.4 × 10^5 organisms, read-out: PD50
Method: as §2

Ent. cloacae A-9656 = experiment: MIC, tube dilution, Enterobacter cloacae A9656; type: cell-based; conditions: Enterobacter cloacae, A9656, Enterobacter cloacae A9656; overnight 37° C.; read-out: Minimum Inhibitory Concentration (M.I.C.)
Description: as §1

[2] = test system: Klebsiella species A20468; experiment: MIC, tube dilution, Klebsiella species A20468; type: cell-based; conditions: Klebsiella species (K. pneumoniae) A20468; overnight 37° C.; read-out: Minimum Inhibitory Concentration (M.I.C.)
Description: as §1

S. aureus A9537 = experiment: In vivo protection of mice, lethal infection with S. aureus A9537; conditions: Staphylococcus aureus, 2 treatments, read-out: PD50
Method: as §2

K. pneumoniae A15130 = experiment: In vivo protection of mice, lethal infection with K. pneumoniae A15130; conditions: Klebsiella pneumoniae, IM, 2 treatments, 1.2 × 10^3 organisms, read-out: PD50
Method: as §2

S. pyogenes A9604 = experiment: In vivo protection of mice, lethal infection with S. pyogenes A9604; conditions: Streptococcus pyogenes, A9604, im, 2 treatments, read-out: PD50
Method: as §2

S. pneumoniae A9585 = experiment: In vivo protection of mice, lethal infection with S. pneumoniae A9585; conditions: Streptococcus pneumoniae, A9585, im, 2 treatments, read-out: PD50
Method: as §2

Str. faecalis A-20688 = experiment: MIC, tube dilution, Streptococcus faecalis A20688; type: cell-based; conditions: Enterococcus faecalis, A20688, Str. faecalis A20688; overnight 37° C.; read-out: Minimum Inhibitory Concentration (M.I.C.)
Description: as §1

Ps. aeruginosa A-21213 = experiment: MIC, tube dilution, Pseudomonas aeruginosa A21213; type: cell-based; conditions: Pseudomonas aeruginosa A21213; overnight 37° C.; read-out: Minimum Inhibitory Concentration (M.I.C.)
Description: as §1

[3] = test system: Staph. aureus (Meth-Res) A-15097; experiment: MIC, tube dilution, Staphylococcus aureus A15097 (Meth-Res); type: cell-based; conditions: Staphylococcus aureus, Staph. aureus A15097 (Meth-Res); overnight 37° C.; read-out: Minimum Inhibitory Concentration (M.I.C.)
Description: as §1

Staph. aureus A-9537 = experiment: MIC, tube dilution, Staphylococcus aureus A9537; type: cell-based; conditions: Staphylococcus aureus, A9537, Staph. aureus A9537; overnight 37° C., Nutrient Broth; read-out: Minimum Inhibitory Concentration (M.I.C.)
Description: as §1

[4] = Mouse blood levels after intramuscular administration; type: in vivo; conditions: average of 6 mice, read-out: Mouse blood level
Method: Mouse blood levels after intramuscular administration of representative compounds of the present invention were determined and are reported in the table below.

Proteus vulgaris A21559 = experiment: MIC, tube dilution, Proteus vulgaris A21559; type: cell-based; conditions: Proteus vulgaris, A21559, Proteus vulgaris A21559; overnight 37° C.; read-out: Minimum Inhibitory Concentration (M.I.C.)
Description: as §1

S. aureus A9606 = experiment: In vivo protection of mice, lethal infection with S. aureus A9606; conditions: Staphylococcus aureus, IM, 2 treatments, 8 × 10^8 organisms, read-out: PD50
Method: as §2

Ent. cloacae A-9659 = experiment: MIC, tube dilution, Enterobacter cloacae A9659; type: cell-based; conditions: Enterobacter cloacae, A9659, Enterobacter cloacae A9659; overnight 37° C.; read-out: Minimum Inhibitory Concentration (M.I.C.)
Description: as §1

E. coli A-15119 = experiment: MIC, tube dilution, Escherichia coli A15119; type: cell-based; conditions: Escherichia coli, A15119, E. coli A15119; overnight 37° C.; read-out: Minimum Inhibitory Concentration (M.I.C.)
Description: as §1

Proteus rettgeri A21203 = experiment: MIC, tube dilution, Proteus rettgeri A21203; type: cell-based; conditions: Providencia rettgeri, A21203, Proteus rettgeri A21203; overnight 37° C.; read-out: Minimum Inhibitory Concentration (M.I.C.)
Description: as §1

K. pneumoniae A-15130 = experiment: MIC, tube dilution, Klebsiella pneumoniae A15130; type: cell-based; conditions: Klebsiella pneumoniae, A15130, K. pneumoniae A15130; overnight 37° C.; read-out: Minimum Inhibitory Concentration (M.I.C.)
Description: as §1

Str. pyogenes A-9604 = experiment: MIC, tube dilution, Streptococcus pyogenes A9604; type: cell-based; conditions: Streptococcus pyogenes, A9604, Str. pyogenes A9604; overnight 37° C., Nutrient Broth; read-out: Minimum Inhibitory Concentration (M.I.C.)
Description: as §1

E. coli A-20341-1 = experiment: MIC, tube dilution, Escherichia coli A20341-1; type: cell-based; conditions: Escherichia coli, A203411; E. coli A20341-1; overnight 37° C.; read-out: Minimum Inhibitory Concentration (M.I.C.)
Description: as §1

Compound: NCCCCC1=C(C(=O)O)N2C(=O)CC2S1 (centres unmarked) [Example 73, 2-(4'-Aminobutyl)-penem-3-carboxylic Acid]
- MIC (Str. pneumoniae A-9585): 0.13 µg/mL (≈ 0.537 µM)
- ED50 (Proteus mirabilis A9900): > 100 mg/kg
- MIC (Pr. mirabilis A-9900): 8 µg/mL (≈ 33 µM)
- MIC [1]: 1 µg/mL
- ED50 (E. coli A15119): 25 mg/kg
- MIC (Ent. cloacae A-9656): 32 µg/mL (≈ 132 µM)
- MIC [2]: > 125 µg/mL
- ED50 (S. aureus A9537; A9537, im, IM, 1 × 10^6 organisms): 0.2 mg/kg
- ED50 (S. aureus A9537; A9537, im, IM, 6.8 × 10^5 organisms): 0.2 mg/kg
- ED50 (S. aureus A9537; A9537, im, IM, 8 × 10^5 organisms): 0.2 mg/kg
- ED50 (S. aureus A9537; A9537, po, PO, 1 × 10^6 organisms): 0.5 mg/kg
- ED50 (K. pneumoniae A15130): > 100 mg/kg
- ED50 (S. pyogenes A9604; 1.2 × 10^3 organisms): 0.89 mg/kg
- ED50 (S. pyogenes A9604; 8 × 10^3 organisms): 0.51 mg/kg
- ED50 (S. pneumoniae A9585; 3 × 10^4 organisms): 1.2 mg/kg
- ED50 (S. pneumoniae A9585; 3.4 × 10^4 organisms): 1.56 mg/kg
- MIC (Str. faecalis A-20688): 32 µg/mL (≈ 132 µM)
- MIC (Ps. aeruginosa A-21213): > 125 µg/mL
- MIC [3]: 16 µg/mL (≈ 66 µM)
- MIC (Staph. aureus A-9537): 0.25 µg/mL (≈ 1.03 µM)
- concentration at 10 min ([4]; 10 minutes after IM 40 mg/kg): 37900 ng/mL
- concentration at 20 min ([4]; 20 minutes after IM 40 mg/kg): 30800 ng/mL
- concentration at 0.5 h ([4]; 30 minutes after IM 40 mg/kg): 21200 ng/mL
- concentration at 0.75 h ([4]; 45 minutes after IM 40 mg/kg): 13200 ng/mL
- concentration at 1 h ([4]; 60 minutes after IM 40 mg/kg): 8400 ng/mL
- concentration at 1.5 h ([4]; 90 minutes after IM 40 mg/kg): 3400 ng/mL
- concentration at 2 h ([4]; 120 minutes after IM 40 mg/kg): < 3000 ng/mL
- MIC (Proteus vulgaris A21559): 32 µg/mL (≈ 132 µM)
- ED50 (S. aureus A9606): 6.3 mg/kg
- MIC (Ent. cloacae A-9659): 63 µg/mL (≈ 260 µM)
- MIC (E. coli A-15119): 8 µg/mL (≈ 33 µM)
- MIC (Proteus rettgeri A21203): 16 µg/mL (≈ 66 µM)
- MIC (K. pneumoniae A-15130): 32 µg/mL (≈ 132 µM)
- MIC (Str. pyogenes A-9604): 0.25 µg/mL (≈ 1.03 µM)
- MIC (E. coli A-20341-1): 125 µg/mL (≈ 516 µM)
